Experimental findings from patent publication US11696881B2, “Oral care compositions comprising hops beta acids and fluoride ions” (The Procter & Gamble Company, priority 2019, dated 2023) are described below.

The assay deals with plaque biofilm grown from pooled human saliva (3-day biofilm). The assay can be described thus: in vitro plaque glycolysis model (iPGRM): acid production and acid inhibition. In kind it is cell-based. As to the method:
Acid production and acid inhibition were determined with the in vitro plaque glycolysis model (iPGRM). The purpose of this technique is to provide a simple and quick method for determining if compounds have an influence on the metabolic pathways that plaque microorganisms utilize to produce toxins that adversely affect gingival health.
The in vitro plaque glycolysis model (iPGRM) is a technique in which plaque is grown from human saliva and treated with various agents to determine anti-glycolytic activity of treatments. When bacteria convert sugar into energy with the help of enzymes, acids are formed. These acids demineralize and damage the dental enamel. […]
A plaque biofilm was grown on glass rods from fresh pooled human saliva and Trypticase Soy Broth (TSB) at 37° C. over […] by dipping glass rods into and out of media in a reciprocating motion. […] The pH of the media solutions was then measured to determine the amount of glycolysis inhibition relative to a negative control.
On Day 1, new glass rods (5 mm×90 mm) were polished approximately 25 mm from the untapered end on a lathe with silicon carbide paper of 240, 320, 400, and 600 grit used sequentially. […] After polishing, rods were stored until ready to run test. […]

On to `[H]/N=C(\N/C(=N/[H])NCCCCCCNC(=N)NC(=N)Nc1ccc(Cl)cc1)Nc1ccc(Cl)cc1` [1% Chlorhexidine, Chlorhexidine], for which, for the setting “Table 2, 2 min treatment with 1:5 slurry in water”, the “Acid Production (ΔpH) Mean” value was 0.30 ΔpH. In addition, where the note is “Table 2, relative to negative control Crest Cavity Protection”, the “Mean Acid Inhibition (%) Mean” value worked out at 80.77%.
